The subject of assay [1] is Mouse bone marrow cells. Put plainly: in vitro RANKL-dependent osteoclastogenesis, TRAP positive osteoclast count. Type of assay: cell-based. On the procedure: Cultures on plastic plates were fixed and stained for TRAP (tartrate resistant acid […]). TRAP positive multi-nuclear (>3 nuclei) osteoclast cells were counted.
B. Mouse bone marrow cells were cultured in the presence of 25 ng/ml M-CSF with 50 ng/ml RANKL in 48-well plates. On day 3 d-PDMP (1.25, 5 or 20 μM), NB-DNJ, NB-DGJ, or N-OD-DNJ (5, 50, or 500 μM) were added. Cells were cultured for another 24 hours before fixed and stained for TRAP. TRAP positive osteoclast cells mature were counted on day 4 (left). Morphology of 4 day osteoclasts.

Assay [2] deals with Mouse bone marrow cells. Put plainly: Promotion of osteoclastogenesis by GM3 and IGF-1 with M-CSF and RANKL, TRAP positive mature osteoclast count. The assay is classed as cell-based. The procedure:
A. Mouse bone marrow cells were cultured in the presence of 25 ng/ml M-CSF with 50 ng/ml RANKL and GM3 (0.05, 0.5 or 5 μM) in 48-well plates for 4 days. Cultures on plastic plates were fixed and stained for TRAP. TRAP positive mature osteoclast cells were counted.
As well as RANKL+M-CSF, IGF-1 at the indicated concentrations was added.
C. […] OC were developed in the presence of RANKL+M-CSF (control), or these two cytokines plus IGF-1, GM3 or IGF-1+GM3.

For another assay, the system named is osteoclast formation. As to conditions: Iwamoto et al. 2001, cited from earlier work.
In assay [3] the target is T1, ceramide glucosyltransferase (CGT) (Homo sapiens, UniProt Q16739).
T1 sequence (Q16739 1-394): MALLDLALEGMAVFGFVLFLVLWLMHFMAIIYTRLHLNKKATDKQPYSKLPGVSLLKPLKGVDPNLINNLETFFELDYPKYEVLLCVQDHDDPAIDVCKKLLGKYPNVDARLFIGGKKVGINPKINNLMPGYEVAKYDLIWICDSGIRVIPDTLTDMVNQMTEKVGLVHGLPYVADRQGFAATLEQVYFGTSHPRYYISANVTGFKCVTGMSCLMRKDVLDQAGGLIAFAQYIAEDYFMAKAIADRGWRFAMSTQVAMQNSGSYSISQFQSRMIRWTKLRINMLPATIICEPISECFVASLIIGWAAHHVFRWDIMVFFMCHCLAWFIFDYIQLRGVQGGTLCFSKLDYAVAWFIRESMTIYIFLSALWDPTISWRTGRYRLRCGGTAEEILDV
Particulars: literature; cited from earlier work.

The test system of assay [4] is MAPK signaling (ERK, p38, JNK). Put plainly: GM3-induced ERK, P38, JNK phosphorylation in OC, immunoblot. The assay is classed as cell-based, mouse. The procedure:
D. OC were cultured with M-CSF+RANKL to day 3 then starved in 0.5% serum medium overnight. Cells were treated with GM3 or GM3+NB-DNJ for the time points indicated and then immunoblotted with α-pERK1/2, α-pP38, α-pJNK antibodies. Membranes were stripped and restained with α-ERK, α-P38, α-JNK antibodies.
Background: A western blot detects proteins with antibodies after separation by electrophoresis.

Assay [5] deals with human, monocyte-derived OC. Nature of the assay: RANKL- and M-CSF-dependent development of human monocyte-derived OC. As to conditions: added either in the beginning or during OC differentiation cultures. The assay is classed as cell-based.
For a further assay, the system named is β-glucosidase. Particulars: Platt et al. 1994; cited from earlier work.
A further assay has as its system NFATc1. Nature of the assay: NFATc1 nuclear accumulation in OC (immunofluorescence, Western blot of nuclear protein). Type of assay: cell-based, mouse. The procedure: (§1) BMCs were cultured to day 3 then starved in 0.5% serum medium overnight. Cells were treated with RANKL (A) or M-CSF (B) for the time points indicated and then immunoblotted with α-pERK1/2, α-pP38, α-pJNK antibodies. Membranes were stripped and restained with α-ERK, α-P38, α-JNK antibodies. […] Overnight serum starved OC were treated as indicated as subsequently stained with anti-NFATc1 and viewed by immunofluorescent microscopy. NB-DNJ abrogated the M-CSF+RANKL-induced accumulation of NFAtc1 in the nyclei. (D) BMCs were cultured 48 h with different combination of M-CSF, RANKL and NB-DNJ. Cells were collected and nuclear protein extracted and NFATc1 expression was checked by Western blot. Staining of histone-1 served as loading control.

For another assay, the system named is α-glucosidase. As to conditions: Platt et al. 1994; cited from earlier work.
The subject of assay [6] is osteoclast activation. Nature of the assay: in vivo alpha-galactosylceramide-induced OC activation, serum CTX levels. Details: species or system C57BL/6 mice. The procedure:
NB-DNJ (500 mg/Kg) or PBS were injected intraperitoneal (i.p.) once a day for 6 consecutive days in 8 wk old C57BL/6 mice. Alpha-galactosylceramide or PBS was administered by a single i.p. injection of 2 μg on day 3. Serum collected on day 7 was used to determine carboxyterminal cross-linking telopeptide of type 1 collagen (CTX) levels (n=4-5 8 wk old female C57BL/6 mice).

Assay [7] relates to MAPK signaling (ERK, p38, JNK). Nature of the assay: MAPK signalling during osteoclastogenesis, immunoblot pERK1/2, pP38, pJNK after RANKL or M-CSF. Type of assay: cell-based, mouse. Particulars: BMCs day 3, serum starved overnight. On the procedure:
as §1

The subject of assay [8] is RAW 264.7 murine macrophage cells. Nature of the assay: Association of TRAF6 and Src with lipid rafts, sucrose gradient fractionation. Type of assay: cell-based. As to conditions: 50 ng/ml RANKL, 4 days. On the procedure: Localization of TRAF6, […] GM1 gangliosides in lipid rafts (fraction 3-5) or non-raft fractions (fraction 7-9) in RAW 264.7 murine macrophage cells were cultured in medium only (control), in the presence of 50 ng/ml RANKL or RANKL+NB-DNJ in 48-well plates for 4 days. Cell lysates were prepared and separated using discontinuous sucrose gradient ultracentrifugation. A total of 9 fractions (1 ml each) were collected from the top to the bottom of the gradients, fraction 2 to 5 were positive for GM1 gangliosides, i.e. contained lipid rafts. The non-raft fractions were 7 to 9. Without RANKL, TRAF6 localises in the non-raft fraction while Src is presented in both raft and nonraft fractions. After RANKL treatment, TRAF6 was detected in raft fraction and Src almost totally shifted into the raft fractions.

Assay [9] concerns osteoclast activation. Put plainly: in vivo RANKL-induced OC activation, serum CTX levels. Details: species or system mice. Particulars: NB-DNJ 500 mg/Kg i.p. daily, RANKL 4 mg/day i.p. from day 3.

The values below come from patent publication US20110136868A1, “AGENTS FOR INHIBITING OSTEOCLASTOGENESIS AND/OR OSTEOCLAST ACTIVATION” (University of Oxford, priority 2009, published 2011).

Entries after “also recorded” stand apart in the source; their conditions may differ.

In the case of `CCCCN1C[C@H](O)[C@@H](O)[C@@H](O)[C@H]1CO` [NB-DGJ, N-butyl-deoxygalactonojirimycin], in the assay with Mouse bone marrow cells [1], the “reduction in OC activation compared with NB-DNJ” value was “significantly less potent”.

Turning to “IGF-1: growth factor known to promote myeloma growth and OC activation”, the “osteoclastogenesis with IGF-1” value in the assay with Mouse bone marrow cells [2] (RANKL+M-CSF plus IGF-1) is listed as “promotes osteoclastogenesis”. Further, the “OC maturation, GM3 plus IGF-1” value with Mouse bone marrow cells [2] (RANKL+M-CSF plus IGF-1 and GM3) is “co-operates with GM3 in promoting osteoclastogenesis”.

In the case of lactosylceramide, in the assay with osteoclast formation (exogenous, in vitro), the “effect on RANKL-dependent osteoclastogenesis” value is “synergistic effect”.

For the molecule `CCCCCCCCCC(=O)N[C@H](CN1CCOCC1)[C@H](O)c1ccccc1` [d-PDMP, D-threo-1-phenyl-2-decanoylamin-3-morpholino-1-propanol], in [3], the “inhibitory effect on CGT” value was “known CGT inhibitor”. Further, the “inhibition of osteoclast formation / OC development” value with osteoclast formation was “can inhibit the osteoclast formation; also recorded: can prevent OC development”. In the assay with Mouse bone marrow cells [1], the “reduction in OC activation compared with NB-DNJ” value was “as effective”.

For `CCCCN1C[C@H](O)[C@@H](O)[C@H](O)[C@H]1CO` [NB-DNJ, N-butyl-deoxynojirimycin], in assay [4], the “GM3-promoted phosphorylation of ERK, P38 and JNK, effect of NB-DNJ” value is “abrogated”. The “inhibition of RANKL- and M-CSF-dependent development of human monocyte-derived OC” value in assay [5] is “inhibit RANKL- and M-CSF-dependent development of murine as well as human, monocyte-derived OC in a dose dependent manner”. Besides, the β-glucosidase inhibitory activity result with β-glucosidase was “have both α- and β-glucosidase inhibitory activities”. For the same molecule, the “nuclear NFATc1 expression” value in the assay on NFATc1 (Western blot, BMCs cultured 48 h with M-CSF, RANKL) is on record as “Considerably less nuclear NFTc1”. Besides, in the assay on NFATc1 (immunofluorescent microscopy, serum starved OC), the “M-CSF+RANKL-induced accumulation of NFATc1 in the nuclei” value is recorded as “abrogated; also recorded: reduced localisation of NFATc in the nucleus”. Moreover, in the assay on α-glucosidase, the α-glucosidase inhibitory activity result is “have both α- and β-glucosidase inhibitory activities”. In addition, the “serum CTX levels, αGC-induced OC activation” value with osteoclast activation [6] (NB-DNJ 500 mg/Kg i.p. daily plus alpha-galactosylceramide 2 μg i.p. day 3, serum day 7) was “inhibits a-galactosylceramide-induced OC activation; also recorded: returned to baseline”. In addition, the “serum CTX levels, NB-DNJ only” value with osteoclast activation [6] (mice receiving only NB-DNJ, p>0.05) is on record as “not significantly different to vehicle controls”. Besides, the “inhibition of RANKL- and M-CSF-dependent development of murine OC” value with Mouse bone marrow cells [1] (added either in the beginning or during OC differentiation cultures) was “inhibit RANKL- and M-CSF-dependent development of murine as well as human, monocyte-derived OC in a dose dependent manner”. Moreover, the “RANKL- and M-CSF-dependent phosphorylation of ERK, JNK and p38” value in assay [7] was “phosphotylation of p38 and to a lesser extend of ERKa,d Jnk is observed; also recorded: significantly reduced”. In addition, the “RANKL-induced localisation of TRAF6 and Src in lipid rafts” value in assay [8] is “TRAF6 and Src are excluded from the rafts”. The “serum CTX levels, RANKL-induced OC activation” value with osteoclast activation [9] was “inhibits RANKL-induced OC activation”.

For the molecule `CCCCCCCCCCCCCCCCCCCCCCCCCC(=O)N[C@@H](CO[C@H]1O[C@H](CO)[C@H](O)[C@H](O)[C@H]1O)[C@H](O)[C@H](O)CCCCCCCCCCCCCC` [αGC, alpha-galactosylceramide], in the assay on osteoclast activation [6] (mice receiving αGC, p<0.01), the “increase of serum CTX levels” value is recorded as roughly 50%.
